In patent US20100056482A1, “Calixarene Derivatives as Anticancer Agent” (CENTRE NATIONAL DE LA RECHERCHE SCIENTIFIQUE-CNRS, priority 2006, published 2010) one finds IC50 data, which are given here for two compounds.

Type in all cases: cell-based
Test [1] concerns WBC (leucocytes), non tumoral cells. Put plainly: MTS cell viability, WBC (Example 2). The following applies: Leucocyte, MTS on 3rd day. The procedure:
(§1) The cells (0.2×10^6/ml) were incubated in a sterile fashion in 100 μl of culture medium (RPMI-1640 supplemented with 10% foetal calf serum, penicillin, streptomycin and amphotericin B) at day DO with variable quantities (from […]) of C4diP, tBuC4diP or C8C4diP at 37° C. and 5% CO2 in a water-saturated atmosphere. On the 3rd day, 20 μl of MTS (non radioactive cell proliferation test (Promega Cat. #: G 3580) are added to the previous 100 μl and then a spectrophotometric reading is carried out at 490 nm after 2 hours of incubation against reagent blanks.
(§2) The cell lines used are as follows: • keratinocytes • WBC: leucocytes • MEWO: human skin melanoma • jurkat: T-cell acute lymphoblastic leukaemia. Cells of the T-lymphocyte type. • HL-60: promyelocytary acute leukaemia. Cells of the promyeloblast type. • Huh7: human hepatoma • Hep-G2: hepatocellular carcinoma.
(§3) The anticancerous effect of C4diP, tBuC4diP and C8C4diP is evaluated by measuring cell viability as a function of variable quantities of these compounds.
(§4) In order to determine the anticancer effect of C4diP, tBuC4diP and C8C4diP on a particular tumour cell culture, the IC50 was calculated.

Test [2] deals with keratinocytes, non tumoral cells. Put plainly: MTS cell viability, keratinocytes (Example 2). The following applies: Keratinocyte, Keratonicytes, MTS on 3rd day. The procedure: as §1, §2, §3, §4
The subject of test [3] is Hep-G2 hepatocellular carcinoma cells. The test can be described thus: MTS cell viability, HepG2 (Example 2). The settings on record: Homo sapiens; HepG2, MTS on 3rd day. The procedure: as §1, §2, §3, §4
Test [4] has as its system HL-60 promyelocytary acute leukaemia cells. The test can be described thus: MTS cell viability, HL-60 (Example 2). The settings on record: Homo sapiens; HL-60, MTS on 3rd day. The method, then:
as §1, §2, §3, §4

In test [5] the test system is Huh7 human hepatoma cells. Put plainly: MTS cell viability, Huh7 (Example 2). The settings on record: Huh 7, MTS on 3rd day. The method, then: as §1, §2, §3, §4
Test [6] concerns jurkat T-cell acute lymphoblastic leukaemia cells. Put plainly: MTS cell viability, Jurkat (Example 2). The settings on record: Homo sapiens, MTS on 3rd day. The method, then:
as §1, §2, §3, §4

Test [7] concerns MEWO human skin melanoma cells. Put plainly: MTS cell viability, Mewo (Example 2). The settings on record: MTS on 3rd day. The procedure:
as §1, §2, §3, §4

Test [8] concerns human PBMC (peripheral blood mononuclear cells). The test can be described thus: MTS cell viability, human PBMC primary culture (Example 3). The following applies: primary culture of human PBMC (WBC, healthy lymphocytes), read-out: IC50 (mean concentration for 50% mortality). The method, then:
The cells (0.2×10^6/ml) were incubated in a sterile fashion in 100 μl of culture medium (RPMI-1640 supplemented with 10% foetal calf serum, penicillin, streptomycin and amphotericin B) at day DO with variable quantities (from […]) of C4diP at 37° C. and 5% CO2 in a water-saturated atmosphere. At the 4th day, 20 μl of MTS (non-radioactive cell proliferation test (Promega Cat. #: G 3580) is added to the previous 100 μl and then a spectrophotometric reading is carried out at 490 nm after 2 hours of incubation against reagent blanks.
In order to determine the anticancer effect of C4diP on a particular culture of tumour cells, the IC50 was calculated.
The protocol used is that described previously in example 1. When vinblastin is used in the culture medium, it replaces C4diP.

Turning to `CCCCCCCC(=O)/C(C)=C/C(Cc1cc(C(=O)CCCCCCC)cc(Cc2cc(C(=O)CCCCCCC)cc(Cc3cc(C(=O)CCCCCCC)cc(CC)c3OP(=O)(O)O)c2O)c1OP(=O)(O)O)=C(\C)O` [C8C4diP, para-octanoyl-calyx[4]arene dihydroxyphosphonic acid], the IC50 in test [1] was 95 µM; in test [2], 46 µM; in test [3], 1000 µM; in test [4], 1000 µM; in test [5], 270 µM; in test [6], 113 µM. In test [7], the IC50 was determined as 1000 µM.
On to `CC[C@]1(O)C[C@@H]2CN(CCc3c([nH]c4ccccc34)[C@@](C(=O)OC)(c3cc4c(cc3OC)N(C)[C@H]3[C@@](O)(C(=O)OC)[C@H](OC(C)=O)[C@]5(CC)C=CCN6CC[C@]43[C@@H]65)C2)C1` [vinblastin, reference compound], for which the IC50 in test [8] amounted to 0.005 µM.
